{
  "source": "patent US10265303B2",
  "about": "“Hyperphenylalaninemia and treatments thereof” (BERGEN TEKNOLOGIOVERFØRING AS, priority 2015, dated 2019)",
  "key": {"[1]": {"biological_target": "T1, human wild-type PAH (Homo sapiens, UniProt P00439)", "T1 construct": "expressed in transfected cells", "T1 sequence (P00439 1-452)": "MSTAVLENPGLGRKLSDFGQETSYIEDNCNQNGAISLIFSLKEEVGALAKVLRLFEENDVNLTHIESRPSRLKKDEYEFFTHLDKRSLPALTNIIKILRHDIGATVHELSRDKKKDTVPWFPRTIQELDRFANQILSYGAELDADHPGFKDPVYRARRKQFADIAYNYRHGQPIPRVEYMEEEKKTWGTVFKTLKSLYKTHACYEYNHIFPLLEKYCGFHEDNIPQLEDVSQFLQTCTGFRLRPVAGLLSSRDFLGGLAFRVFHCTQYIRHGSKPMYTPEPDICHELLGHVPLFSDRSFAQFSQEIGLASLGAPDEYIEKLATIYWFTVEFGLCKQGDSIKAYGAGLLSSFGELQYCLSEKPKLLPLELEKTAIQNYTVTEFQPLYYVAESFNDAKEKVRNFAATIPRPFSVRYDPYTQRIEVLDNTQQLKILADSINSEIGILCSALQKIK", "assay": "PAH activity in lysates of HEK293 cells permanently expressing human wild-type PAH", "type": "cell-based", "procedure": "(§1) Human embryonic kidney cells (HEK293; Life Technologies™) permanently expressing WT-hPAH, prepared with the Flp-In system (Life Technologies™) were kindly provided by Per Knappskog, Haukeland University Hospital. About 1 million cells were grown in DMEM medium containing 4.5 g/l glucose, 10% (v/v) fetal calf serum, 0.25 mg/ml gentamycine, 2 mM L-glutamine and 50 μg/ml hygromycin B, and after 24 h medium was changed and the test compounds were added at a concentration of 0.02 mg/ml (1% DMSO). Eight hours later, the cells were harvested, and the pellets frozen in dry ice and stored at −80° C. […] To prepare the cell extracts, the frozen cell pellets were thawed in TBS (+protease inhibitor) buffer and cells were homogenized with 0.1% TX-100, incubated 15 minutes at 4° C. and extracts were clarified by centrifugation 20000 g for 15 min at 4° C. Protein concentrations were normalized using a Direct Detect Spectrometer (Merck Millipore).\nThe 7 selected compounds as well as the first generation pharmacological chaperones (Compounds III and IV) were further analyzed in the presence and absence of BH2 (200 μM), added as precursor of BH4, to account for additive effects. […]\nas §1, with “and the compounds were” for “and the test compounds were”, “concentration of 0.04 mg/ml (1%” for “concentration of 0.02 mg/ml (1%”, “for 15 minutes at 4°” for “for 15 min at 4°”"}, "[2]": {"biological_target": "T2, I65T-PAH (Homo sapiens, UniProt P00439, I65T)", "T2 construct": "expressed in transfected cells; host or cells: HEK293 EBNA, transient, pcDNA3-PAH", "T2 sequence (P00439 1-452 I65T)": "T1 sequence (P00439 1-452) with I65T", "assay": "PAH protein level and activity in HEK293 EBNA cells transiently expressing PKU mutant I65T", "type": "cell-based", "conditions": "24 h", "procedure": "Cell lysates were prepared as indicated above."}},
  "note": "Where a chain is given by its changes, count along the chain named.",
  "data": [
    {"smiles": "COc1cc(Cc2cnc(N)nc2N)cc(OC)c1OC", "note": "[c53, trimethoprim]", "values": [
      {"measurement": "effect on PAH activity (FIG. 1A)", "setting": "[1]; 0.04 mg/ml (average 116.7 μM), 1% DMSO, 8 h", "result": "very large stimulating effect"},
      {"measurement": "PAH activity-cells (%)", "setting": "[1]; 0.04 mg/ml compound, 1% DMSO, 8 h, Table 3", "result": "148 ± 16", "unit": "%"},
      {"measurement": "increase of hPAH activity with respect to the control (FIG. 6)", "setting": "[1]; average compound concentration 144.9 μM, 1% DMSO, 8 h", "result": "around 40%"},
      {"measurement": "effect on PAH activity together with BH2 (FIG. 1B)", "setting": "[1]; compound average 116.7 μM plus BH2 200 μM", "result": "additive"},
      {"measurement": "protein and activity, mutant I65T, Compound 53 and BH2 together", "setting": "[2]; 200 μM each", "result": "trends for additive effects"},
      {"measurement": "PAH activity, mutant I65T", "setting": "[2]; 200 μM, 1% DMSO", "result": "greatly increased"},
      {"measurement": "hPAH protein level, mutant I65T", "setting": "[2]; 200 μM, 1% DMSO", "result": "greatly increased"}
    ]}
  ]
}
